# What was measured:
# [1] = Antiviral activity against HIV virus in absence of human serum; type: functional
# [2] = Antiviral activity against HIV virus in presence of 50% human serum; type: functional
# [3] = Antiviral activity against HIV virus; type: functional
# [4] = target: Human immunodeficiency virus type 1 protease (Human immunodeficiency virus 1, UniProt Q72874); test: Tested for inhibition of HIV protease
EC50 [1],EC50 [2],EC50 [3],Structure (SMILES),further results
220 nM,1860 nM,,C=Cc1cccc(S(=O)(=O)N2C[C@@H](O)[C@@H](Cc3ccccc3)N(Cc3cccc(C(=N)NO)c3)C(=O)N2CCCC)c1,
,,670 nM,O=C1N(Cc2ccc(O)cc2)[C@H](Cc2ccccc2)[C@H](O)CN(S(=O)(=O)c2cc(Cl)cc(Cl)c2)N1Cc1ccc(O)cc1,
,,,O=C(c1ccccc1)N1C[C@@H](O)[C@@H](Cc2ccccc2)N(Cc2ccc(O)cc2)C(=O)N1Cc1ccc(O)cc1,Ki [4]: 0.01 nM
,560 nM,,CCCCN1C(=O)N(Cc2cccc(C(=N)NO)c2)[C@H](Cc2ccccc2)[C@H](O)CN1S(=O)(=O)c1cccc(OC)c1,
,,230 nM,Cc1ccccc1S(=O)(=O)N1C[C@@H](O)[C@@H](Cc2ccccc2)N(Cc2ccc(O)cc2)C(=O)N1Cc1ccc(O)cc1,
,,750 nM,COc1ccc(S(=O)(=O)N2C[C@@H](O)[C@@H](Cc3ccccc3)N(Cc3ccc(O)cc3)C(=O)N2Cc2ccc(O)cc2)cc1,
150 nM,2560 nM,,CCCCN1C(=O)N(Cc2cccc(C(=N)NO)c2)[C@H](Cc2ccccc2)[C@H](O)CN1S(=O)(=O)c1cccc(O)c1,
,,920 nM,Cc1cccc(S(=O)(=O)N2C[C@@H](O)[C@@H](Cc3ccccc3)N(Cc3ccc(O)cc3)C(=O)N2Cc2ccc(O)cc2)c1,
,,940 nM,O=C1N(Cc2ccc(O)cc2)[C@H](Cc2ccccc2)[C@H](O)CN(S(=O)(=O)c2ccc(Cl)c(Cl)c2)N1Cc1ccc(O)cc1,
,,870 nM,Cc1ccc(S(=O)(=O)N2C[C@@H](O)[C@@H](Cc3ccccc3)N(Cc3ccc(O)cc3)C(=O)N2Cc2ccc(O)cc2)cc1,
,,460 nM,COc1cccc(S(=O)(=O)N2C[C@@H](O)[C@@H](Cc3ccccc3)N(Cc3ccc(O)cc3)C(=O)N2Cc2ccc(O)cc2)c1,
,,590 nM,O=C1N(Cc2ccc(O)cc2)[C@H](Cc2ccccc2)[C@H](O)CN(S(=O)(=O)c2cccc(F)c2)N1Cc1ccc(O)cc1,
,,3200 nM,O=C1N(Cc2ccc(O)cc2)[C@H](Cc2ccccc2)[C@H](O)CN(S(=O)(=O)c2ccc(Cl)cc2Cl)N1Cc1ccc(O)cc1,
20 nM,400 nM,,CCCCN1C(=O)N(Cc2cccc(C(=N)NO)c2)[C@H](Cc2ccccc2)[C@H](O)CN1S(=O)(=O)c1cccc(/C(C)=N\O)c1,
,,200 nM,N#Cc1cccc(S(=O)(=O)N2C[C@@H](O)[C@@H](Cc3ccccc3)N(Cc3ccc(O)cc3)C(=O)N2Cc2ccc(O)cc2)c1,
40 nM,850 nM,,CCCCN1C(=O)N(Cc2cccc(C(=N)NO)c2)[C@H](Cc2ccccc2)[C@H](O)CN1S(=O)(=O)c1cccc(C(C)O)c1 (stereo not given in full),
40 nM,370 nM,,CCCCN1C(=O)N(Cc2cccc(C(=N)NO)c2)[C@H](Cc2ccccc2)[C@H](O)CN1S(=O)(=O)c1cccc([N+](=O)[O-])c1,
,,1100 nM,O=C1N(Cc2ccc(O)cc2)[C@H](Cc2ccccc2)[C@H](O)CN(S(=O)(=O)c2ccc(C(F)(F)F)cc2)N1Cc1ccc(O)cc1,
,,560 nM,O=C1N(Cc2ccc(O)cc2)[C@H](Cc2ccccc2)[C@H](O)CN(S(=O)(=O)c2cccc(Cl)c2Cl)N1Cc1ccc(O)cc1,
150 nM,1090 nM,,CCCCN1C(=O)N(Cc2cccc(C(=N)NO)c2)[C@H](Cc2ccccc2)[C@H](O)CN1S(=O)(=O)c1cccc(C(C)=O)c1,
,,420 nM,O=C1N(Cc2ccc(O)cc2)[C@H](Cc2ccccc2)[C@H](O)CN(S(=O)(=O)c2cccc(Br)c2)N1Cc1ccc(O)cc1,
,,1100 nM,O=C1N(Cc2ccc(O)cc2)[C@H](Cc2ccccc2)[C@H](O)CN(S(=O)(=O)c2ccc(Cl)cc2)N1Cc1ccc(O)cc1,
30 nM,2380 nM,,CCCCN1C(=O)N(Cc2cccc(C(=N)NO)c2)[C@H](Cc2ccccc2)[C@H](O)CN1S(=O)(=O)c1cccc(N)c1,
160 nM,2490 nM,,CCCCN1C(=O)N(Cc2cccc(C(=N)NO)c2)[C@H](Cc2ccccc2)[C@H](O)CN1S(=O)(=O)c1cccc(Br)c1,
,,810 nM,O=C1N(Cc2ccc(O)cc2)[C@H](Cc2ccccc2)[C@H](O)CN(S(=O)(=O)c2cccc([N+](=O)[O-])c2)N1Cc1ccc(O)cc1,

Structure (SMILES),EC50 [1],EC50 [2],EC50 [3],further results
O=C1N(Cc2ccc(O)cc2)[C@H](Cc2ccccc2)[C@H](O)CN(S(=O)(=O)c2ccccc2)N1Cc1ccc(O)cc1,,,450 nM,Ki [4]: 1.37 nM

# — ChEMBL document CHEMBL1137138, “Synthesis and antiviral activity of P1' arylsulfonamide azacyclic urea HIV protease inhibitors” (Bioorg Med Chem Lett, 2004)
